Laboratory results as given in patent US11161846B2, “Substituted pyrazolo[4,3-b]pyridines and their use as GluN2B receptor modulators” (JANSSEN PHARMACEUTICA NV, priority 2019, dated 2021).
pIC50: −log10 of the molar value. Structures can show the parent of a compound that is named as a salt.

These compounds were tested against T1, human GluN1/GluN2B NMDA receptors (Homo sapiens, UniProt Q05586+Q13224) (assay: Calcium flux (FLIPR) assay on cloned human NR1/GluN2B ion channels expressed in mammalian cells, standard assay). Conditions: glutamate ~EC40 and 10 μM glycine, stable cell line with Tet-On induced expression.
T1 construct: expressed in transfected cells
T1 sequence (Q13224 27-1484, other chains not shown): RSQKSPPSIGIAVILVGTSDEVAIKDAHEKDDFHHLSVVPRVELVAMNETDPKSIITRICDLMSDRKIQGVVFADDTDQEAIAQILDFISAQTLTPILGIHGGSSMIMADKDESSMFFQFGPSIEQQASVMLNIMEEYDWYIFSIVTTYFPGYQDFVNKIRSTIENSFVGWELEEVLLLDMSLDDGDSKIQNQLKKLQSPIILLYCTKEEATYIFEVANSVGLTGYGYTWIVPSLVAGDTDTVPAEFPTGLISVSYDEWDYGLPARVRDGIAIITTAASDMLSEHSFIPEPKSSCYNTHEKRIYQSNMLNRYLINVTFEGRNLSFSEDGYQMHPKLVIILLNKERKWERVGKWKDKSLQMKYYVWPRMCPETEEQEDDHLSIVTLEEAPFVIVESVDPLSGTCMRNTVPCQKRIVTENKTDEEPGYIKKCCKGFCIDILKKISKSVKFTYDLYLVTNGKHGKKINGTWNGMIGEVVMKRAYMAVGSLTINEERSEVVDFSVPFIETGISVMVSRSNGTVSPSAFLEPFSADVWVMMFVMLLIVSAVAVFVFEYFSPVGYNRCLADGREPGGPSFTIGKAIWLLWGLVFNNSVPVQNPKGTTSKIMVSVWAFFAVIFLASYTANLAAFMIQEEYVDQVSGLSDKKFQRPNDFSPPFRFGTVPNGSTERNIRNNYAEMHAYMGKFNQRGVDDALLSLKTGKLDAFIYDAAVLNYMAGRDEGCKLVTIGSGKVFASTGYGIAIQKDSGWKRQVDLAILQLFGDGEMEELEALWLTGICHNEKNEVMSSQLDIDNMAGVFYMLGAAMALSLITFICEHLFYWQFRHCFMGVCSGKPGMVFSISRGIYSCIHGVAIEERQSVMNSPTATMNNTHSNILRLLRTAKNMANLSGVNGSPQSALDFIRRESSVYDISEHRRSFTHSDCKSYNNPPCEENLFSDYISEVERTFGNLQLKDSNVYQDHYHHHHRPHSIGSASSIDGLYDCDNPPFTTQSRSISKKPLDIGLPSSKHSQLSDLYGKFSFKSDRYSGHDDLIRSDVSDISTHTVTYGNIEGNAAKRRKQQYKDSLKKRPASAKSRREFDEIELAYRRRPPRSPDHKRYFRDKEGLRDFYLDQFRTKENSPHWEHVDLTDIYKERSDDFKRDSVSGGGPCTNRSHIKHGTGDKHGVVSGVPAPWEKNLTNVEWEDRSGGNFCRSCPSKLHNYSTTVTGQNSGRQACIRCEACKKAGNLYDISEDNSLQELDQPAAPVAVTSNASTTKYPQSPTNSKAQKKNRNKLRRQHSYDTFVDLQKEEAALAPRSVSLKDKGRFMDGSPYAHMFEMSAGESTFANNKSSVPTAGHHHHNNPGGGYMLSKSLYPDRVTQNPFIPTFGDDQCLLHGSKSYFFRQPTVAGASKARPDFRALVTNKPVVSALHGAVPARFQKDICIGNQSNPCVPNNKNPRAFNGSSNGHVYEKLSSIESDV
Assay type: cell-based
Method: Effects of Test Articles on Cloned Human NR1/GluN2B Ion Channels Expressed in Mammalian Cells
NMDA receptors are ion channels that are highly permeable to Ca^2+ ions, rendering it possible to monitor NMDA receptor function using cell-based calcium flux assay. In this assay, co-agonists glutamate and glycine are added to cells heterologously expressing human GluN1/GluN2B NMDA receptors to initiate cellular Ca^2+ influx. The time course of the changes in intracellular calcium is measured using a fluorescent dye and a FLIPR (Fluorometric Imaging Plate Reader) device.
Twenty four hours before measurements, the expression of the NMDA receptors in the stable cell line is induced with Tet-On inducible system in the presence of a non-selective NMDA receptor blocker. On the day of the experiment, cell culture media is carefully washed and the cells are loaded with Calcium 5 Dye Kit (Molecular Devices) in dye loading buffer containing 137 mM NaCl, 4 mM KCl, 2 mM CaCl2, 0.5 mM MgCl2 (standard assay) or 1.5 mM MgCl2 (HTS assay), 10 mM HEPES and 5 mM D-glucose; pH 7.4. After 1 h incubation at the room temperature, the dye is washed away with the assay buffer (137 mM NaCl (standard assay) or 150 mM (HTS assay), 4 mM KCl (standard assay) or 3 mM (HTS assay), 2 mM CaC2, 0.01 mM EDTA, 10 mM HEPES and 5 mM D-glucose; pH 7.4) In the FLIPR TETRA reader, various concentrations of the test compounds are added to the cells for 5 min while fluorescence is monitored to detect potential agonist activity. Next, co-agonists, glutamate and glycine are added for another 5 minutes. The concentration of glutamate corresponding to ˜EC40 (standard assay) or EC40 (HTS assay) is used to maximize the assay's signal window and ability to detect NMDA receptor antagonists and negative allosteric modulators. A saturating concentration (10 μM) of glycine is also present in the assay. A non-selective NMDA receptor antagonist, (+)MK-801 is used as a positive control for antagonist activity. The fluorescent signal in the presence of test compounds is quantified and normalized to the signal defined by the appropriate control wells.

pIC50	Structure (SMILES)
6.78	CN1CC(Cn2ncc3ncc(-c4ccc(F)c(OC(F)F)c4)cc32)OC1=O (racemic) [Example 128, (RS)-5-((6-(3-(Difluoromethoxy)-4-fluorophenyl)-1H-pyrazolo[4,3-b]pyridin-1-yl)methyl)-3-methyloxazolidin-2-one]
8.15	Cc1cccc(-c2cnc3cnn(CC(=O)C4CC4)c3c2)c1F [Example 71, 1-Cyclopropyl-2-[6-(2-fluoro-3-methyl-phenyl)pyrazolo[4,3-b]pyridin-1-yl]ethanone]
< 5.52	CN1C(=O)CCC1Cn1ncc2ncc(-c3ccc(F)c(OC(F)F)c3)cc21 (racemic) [Example 114, (RS)-5-((6-(3-(Difluoromethoxy)-4-fluorophenyl)-1H-pyrazolo[4,3-b]pyridin-1-yl)methyl)-1-methylpyrrolidin-2-one]
6.00	CN1CC(Cn2ncc3ncc(-c4ccc(F)c(OC(F)F)c4)cc32)CC1=O (racemic) [Example 19, (RS)-4-[[6-[3-(Difluoromethoxy)-4-fluoro-phenyl]pyrazolo[4,3-b]pyridin-1-yl]methyl]-1-methyl-pyrrolidin-2-one]
6.28	CCC(O)Cn1ncc2ncc(-c3ccc(F)c(F)c3)cc21 (racemic) [Example 91, (RS)-1-[6-(3,4-Difluorophenyl)pyrazolo[4,3-b]pyridin-1-yl]butan-2-ol]
7.21	CC(C)C(=O)Cn1ncc2ncc(-c3cccc(C(F)(F)F)c3)cc21 [Example 2, 3-Methyl-1-[6-[3-(trifluoromethyl)phenyl]pyrazolo[4,3-b]pyridin-1-yl]butan-2-one]
7.85	O=C(Cn1ncc2ncc(-c3ccc(F)c(OC(F)F)c3)cc21)C1CC1 [Example 77, 1-Cyclopropyl-2-[6-[3-(difluoromethoxy)-4-fluoro-phenyl]pyrazolo[4,3-b]pyridin-1-yl]ethanone]
5.74	O=C1NC[C@@H](Cn2ncc3ncc(-c4ccc(F)c(C(F)F)c4)cc32)O1 [Example 21, (S)-5-[[6-[3-(Difluoromethyl)-4-fluoro-phenyl]pyrazolo[4,3-b]pyridin-1-yl]methyl]oxazolidin-2-one]
7.49	CCC(=O)Cn1ncc2ncc(-c3ccc(F)cc3)cc21 [Example 28, 1-[6-(4-Fluorophenyl)pyrazolo[4,3-b]pyridin-1-yl]butan-2-one]
5.85	COCCC(O)Cn1ncc2ncc(-c3cccc(C(F)(F)F)c3)cc21 (racemic) [Example 90, (RS)-4-Methoxy-1-[6-[3-(trifluoromethyl)phenyl]pyrazolo[4,3-b]pyridin-1-yl]butan-2-ol]
5.74	CCS(=O)(=O)Cn1ncc2ncc(-c3ccc(F)c(OC(F)F)c3)cc21 [Example 13, 6-[3-(Difluoromethoxy)-4-fluoro-phenyl]-1-(ethylsulfonylmethyl)pyrazolo[4,3-b]pyridine]
6.39	O=C(Cn1ncc2ncc(-c3ccc(F)c(C(F)F)c3)cc21)c1ncc(F)cc1F [Example 141, 2-(6-(3-(Difluoromethyl)-4-fluorophenyl)-1H-pyrazolo[4,3-b]pyridin-1-yl)-1-(3,5-difluoropyridin-2-yl)ethan-1-one]
5.75	COC(Cn1ncc2ncc(-c3cc(F)c(F)c(F)c3)cc21)C1CC1 (racemic) [Example 11, (R/S)-1-(2-Cyclopropyl-2-methoxy-ethyl)-6-(3,4,5-trifluorophenyl)pyrazolo[4,3-b]pyridine]
7.20	Cc1cc(-c2cnc3cnn(CC(=O)C4CCC4)c3c2)ccc1F [Example 70, 1-Cyclobutyl-2-[6-(4-fluoro-3-methyl-phenyl)pyrazolo[4,3-b]pyridin-1-yl]ethanone]
7.12	O=C(Cn1ncc2ncc(-c3ccc(Cl)c(C(F)(F)F)c3)cc21)C1CC1 [Example 75, 2-[6-[4-Chloro-3-(trifluoromethyl)phenyl]pyrazolo[4,3-b]pyridin-1-yl]-1-cyclopropyl-ethanone]
7.05	CN1CC(Cn2ncc3ncc(-c4ccc(F)c(C(F)F)c4)cc32)CC1=O (racemic) [Example 120, (RS)-4-[[6-[3-(Difluoromethyl)-4-fluoro-phenyl]pyrazolo[4,3-b]pyridin-1-yl]methyl]-1-methyl-pyrrolidin-2-one]
6.45	CN1CCC(Cn2ncc3ncc(-c4ccc(F)c(OC(F)F)c4)cc32)C1=O (racemic) [Example 119, (RS)-3-((6-(3-(Difluoromethoxy)-4-fluorophenyl)-1H-pyrazolo[4,3-b]pyridin-1-yl)methyl)-1-methylpyrrolidin-2-one]
6.57	Cc1cc(-c2cnc3cnn(C[C@@H](O)C4CC4)c3c2)ccc1F [Example 103, (S)-1-Cyclopropyl-2-[6-(4-fluoro-3-methyl-phenyl)pyrazolo[4,3-b]pyridin-1-yl]ethanol]

pIC50	Structure (SMILES)
7.52	O=C(Cn1ncc2ncc(-c3ccc(F)c(F)c3F)cc21)C1CC1 [Example 79, 1-Cyclopropyl-2-[6-(2,3,4-trifluorophenyl)pyrazolo[4,3-b]pyridin-1-yl]ethanone]
6.16	CN1C[C@@H](Cn2ncc3ncc(-c4ccc(F)c(C(F)F)c4)cc32)CC1=O [Example 121, (S)-4-[[6-[3-(Difluoromethyl)-4-fluoro-phenyl]pyrazolo[4,3-b]pyridin-1-yl]methyl]-1-methyl-pyrrolidin-2-one]
7.34	O=C(Cn1ncc2ncc(-c3cccc(C(F)(F)F)c3)cc21)C1CC1 [Example 62, 1-Cyclopropyl-2-[6-[3-(trifluoromethyl)phenyl]pyrazolo[4,3-b]pyridin-1-yl]ethanone]
6.02	CCC(O)Cn1nc(F)c2ncc(-c3ccc(F)c(F)c3)cc21 (racemic) [Example 94, (RS)-1-[6-(3,4-Difluorophenyl)-3-fluoro-pyrazolo[4,3-b]pyridin-1-yl]butan-2-ol]
7.72	Cc1cc(-c2cnc3cnn(CC(=O)C4CC4)c3c2)ccc1F [Example 69, 1-Cyclopropyl-2-[6-(4-fluoro-3-methyl-phenyl)pyrazolo[4,3-b]pyridin-1-yl]ethanone]
7.77	CCC(=O)Cn1ncc2ncc(-c3ccc(F)c(F)c3)cc21 [Example 34, 1-[6-(3,4-Difluorophenyl)pyrazolo[4,3-b]pyridin-1-yl]butan-2-one]
6.12	COCCn1ncc2ncc(-c3ccc(F)c(C)c3)cc21 [Example 89, 6-(4-Fluoro-3-methyl-phenyl)-1-(2-methoxyethyl)pyrazolo[4,3-b]pyridine]
7.92	CCC(=O)Cn1ncc2ncc(-c3ccc(F)c(C)c3)cc21 [Example 32, 1-[6-(4-Fluoro-3-methyl-phenyl)pyrazolo[4,3-b]pyridin-1-yl]butan-2-one Trifluoroacetate Salt]
5.82	CC(C)C(O)Cn1ncc2ncc(-c3ccccc3)cc21 (racemic) [Example 96, (RS)-3-Methyl-1-(6-phenylpyrazolo[4,3-b]pyridin-1-yl)butan-2-ol]
8.30	CCC(=O)Cn1nc(F)c2ncc(-c3ccc(F)c(F)c3)cc21 [Example 35, 1-[6-(3,4-Difluorophenyl)-3-fluoro-pyrazolo[4,3-b]pyridin-1-yl]butan-2-one]
7.32	CCC(O)Cn1ncc2ncc(-c3ccc(F)c(C(F)F)c3)cc21 (racemic) [Example 5, (RS)-1-[6-[3-(Difluoromethyl)-4-fluoro-phenyl]pyrazolo[4,3-b]pyridin-1-yl]butan-2-ol]
7.12	CC(C)C(=O)Cn1ncc2ncc(-c3cccc(C(F)(F)F)c3F)cc21 [Example 50, 1-[6-[2-Fluoro-3-(trifluoromethyl)phenyl]pyrazolo[4,3-b]pyridin-1-yl]-3-methyl-butan-2-one]
7.34	CCC(=O)Cn1ncc2ncc(-c3cccc(F)c3F)cc21 [Example 33, 1-[6-(2,3-Difluorophenyl)pyrazolo[4,3-b]pyridin-1-yl]butan-2-one]
6.51	O=C1NCC(Cn2ncc3ncc(-c4ccc(Cl)c(OC(F)F)c4)cc32)O1 (racemic) [Example 126, (RS)-5-[[6-[4-Chloro-3-(difluoromethoxy)phenyl]pyrazolo[4,3-b]pyridin-1-yl]methyl]oxazolidin-2-one]
6.92	CN1C[C@H](Cn2ncc3ncc(-c4ccc(F)c(C(F)F)c4)cc32)CC1=O [Example 122, (R)-4-[[6-[3-(Difluoromethyl)-4-fluoro-phenyl]pyrazolo[4,3-b]pyridin-1-yl]methyl]-1-methyl-pyrrolidin-2-one]
7.46	Fc1ccc(-c2cnc3cnn(CC4CCCO4)c3c2)cc1C(F)F (racemic) [Example 18, (RS)-6-[3-(Difluoromethyl)-4-fluoro-phenyl]-1-(tetrahydrofuran-2-ylmethyl)pyrazolo[4,3-b]pyridine]
6.16	OC(Cn1ncc2ncc(-c3cc(F)c(F)c(F)c3)cc21)C1CC1 (racemic) [Example 10, (R/S)-1-Cyclopropyl-2-[6-(3,4,5-trifluorophenyl)pyrazolo[4,3-b]pyridin-1-yl]ethanol]
